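Grown in 96-well plates, cells were treated for 48 hours with each compound at five concentrations. Insufficient inhibition: endpoint recorded as highest concentration tested. TGI: concentration producing complete growth inhibition.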
Experiments:
Experiment in all cases: growth of human tumour cells (NCI), 48 h
[1] = test system: 786-0 renal
[2] = test system: A549 NSCLC
[3] = test system: ACHN renal
[4] = test system: BT-549 breast
[5] = test system: CAKI-1 renal
[6] = test system: CCRF-CEM leukemia
[7] = test system: COLO 205 colon
[8] = test system: DU-145 prostate
[9] = test system: HCC-2998 colon
[10] = test system: HCT-116 colon
[11] = test system: HCT-15 colon
[12] = test system: HL-60(TB) leukemia
[13] = test system: HOP-62 NSCLC
[14] = test system: HOP-92 NSCLC
[15] = test system: HS 578T breast
[16] = test system: HT29 colon
[17] = test system: IGROV1 ovarian
[18] = test system: KM12 colon
[19] = test system: LOX IMVI melanoma
[20] = test system: M14 melanoma
[21] = test system: MALME-3M melanoma
[22] = test system: MCF7 breast
[23] = test system: MDA-MB-231 breast
[24] = test system: MDA-MB-435
[25] = test system: MDA-N
[26] = test system: MOLT-4 leukemia
[27] = test system: NCI-H226 lung
[28] = test system: NCI-H23 lung
[29] = test system: NCI-H460 lung
[30] = test system: NCI-H522 lung
[31] = test system: NCI/ADR-RES ovarian
[32] = test system: OVCAR-3 ovarian
[33] = test system: OVCAR-4 ovarian
[34] = test system: OVCAR-5 ovarian
[35] = test system: OVCAR-8 ovarian
[36] = test system: PC-3 prostate
[37] = test system: RPMI-8226 leukemia
[38] = test system: SF-268 CNS
[39] = test system: SF-295 CNS
[40] = test system: SF-539 CNS
[41] = test system: SK-MEL-2 melanoma
[42] = test system: SK-MEL-28 melanoma
[43] = test system: SK-MEL-5 melanoma
[44] = test system: SK-OV-3 ovarian
[45] = test system: SN12C renal
[46] = test system: SNB-19 CNS
[47] = test system: SNB-75 CNS
[48] = test system: SR leukemia
[49] = test system: SW-620 colon
[50] = test system: T-47D breast
[51] = test system: TK-10 renal
[52] = test system: U251 CNS
[53] = test system: UACC-257 melanoma
[54] = test system: UACC-62 melanoma
[55] = test system: UO-31 renal
[56] = test system: A498 renal
[57] = test system: EKVX NSCLC
[58] = test system: K-562 leukemia
[59] = test system: RXF 393 renal

**Q.** For `COC(=O)CCc1ccc2c(c1)CCC2`, which TGI [1] is on record?
**A.** The TGI was over 100 µM.

**Q.** What about the TGI [2] of the same compound?
**A.** The TGI was over 100 µM.

**Q.** What about the TGI [3] of the same compound?
**A.** The TGI was over 100 µM.

**Q.** And the TGI [4]?
**A.** The TGI was over 100 µM.

**Q.** And the TGI [5]?
**A.** The TGI was over 100 µM.

**Q.** And the TGI [6]?
**A.** Its TGI is over 100 µM.

**Q.** And the TGI [7]?
**A.** Its TGI is over 100 µM.

**Q.** What about the TGI [8] of the same compound?
**A.** The TGI was over 100 µM.

**Q.** What about the TGI [9] of the same compound?
**A.** The TGI was over 100 µM.

**Q.** What about the TGI [10] of the same compound?
**A.** Its TGI is over 100 µM.

**Q.** What about the TGI [11] of the same compound?
**A.** Its TGI is over 100 µM.

**Q.** And the TGI [12]?
**A.** The TGI was over 100 µM.

**Q.** What about the TGI [13] of the same compound?
**A.** The TGI was over 100 µM.

**Q.** And the TGI [14]?
**A.** The TGI was over 100 µM.

**Q.** What about the TGI [15] of the same compound?
**A.** The TGI was over 100 µM.

**Q.** And the TGI [16]?
**A.** The TGI was over 100 µM.

**Q.** And the TGI [17]?
**A.** Its TGI is over 100 µM.

**Q.** What about the TGI [18] of the same compound?
**A.** The TGI was over 100 µM.

**Q.** What about the TGI [19] of the same compound?
**A.** Its TGI is over 100 µM.

**Q.** And the TGI [20]?
**A.** Its TGI is over 100 µM.

**Q.** And the TGI [21]?
**A.** The TGI was over 100 µM.

**Q.** What about the TGI [22] of the same compound?
**A.** Its TGI is over 100 µM.

**Q.** What about the TGI [23] of the same compound?
**A.** The TGI was over 100 µM.

**Q.** And the TGI [24]?
**A.** Its TGI is over 100 µM.

**Q.** What about the TGI [25] of the same compound?
**A.** The TGI was over 100 µM.

**Q.** What about the TGI [26] of the same compound?
**A.** The TGI was over 100 µM.

**Q.** What about the TGI [27] of the same compound?
**A.** Its TGI is over 100 µM.

**Q.** What about the TGI [28] of the same compound?
**A.** Its TGI is over 100 µM.

**Q.** What about the TGI [29] of the same compound?
**A.** The TGI was over 100 µM.

**Q.** What about the TGI [30] of the same compound?
**A.** The TGI was over 100 µM.

**Q.** And the TGI [31]?
**A.** The TGI was over 100 µM.

**Q.** What about the TGI [32] of the same compound?
**A.** Its TGI is over 100 µM.

**Q.** What about the TGI [33] of the same compound?
**A.** Its TGI is over 100 µM.

**Q.** What about the TGI [34] of the same compound?
**A.** The TGI was over 100 µM.

**Q.** And the TGI [35]?
**A.** The TGI was over 100 µM.

**Q.** And the TGI [36]?
**A.** The TGI was over 100 µM.

**Q.** What about the TGI [37] of the same compound?
**A.** Its TGI is over 100 µM.

**Q.** What about the TGI [38] of the same compound?
**A.** Its TGI is over 100 µM.

**Q.** And the TGI [39]?
**A.** Its TGI is over 100 µM.

**Q.** And the TGI [40]?
**A.** Its TGI is over 100 µM.

**Q.** And the TGI [41]?
**A.** Its TGI is over 100 µM.

**Q.** And the TGI [42]?
**A.** The TGI was over 100 µM.

**Q.** And the TGI [43]?
**A.** Its TGI is over 100 µM.

**Q.** What about the TGI [44] of the same compound?
**A.** Its TGI is over 100 µM.

**Q.** And the TGI [45]?
**A.** The TGI was over 100 µM.

**Q.** And the TGI [46]?
**A.** The TGI was over 100 µM.

**Q.** And the TGI [47]?
**A.** Its TGI is over 100 µM.

**Q.** And the TGI [48]?
**A.** Its TGI is over 100 µM.

**Q.** What about the TGI [49] of the same compound?
**A.** Its TGI is over 100 µM.

**Q.** What about the TGI [50] of the same compound?
**A.** The TGI was over 100 µM.

**Q.** And the TGI [51]?
**A.** Its TGI is over 100 µM.

**Q.** And the TGI [52]?
**A.** The TGI was over 100 µM.

**Q.** What about the TGI [53] of the same compound?
**A.** The TGI was over 100 µM.

**Q.** What about the TGI [54] of the same compound?
**A.** The TGI was over 100 µM.

**Q.** And the TGI [55]?
**A.** The TGI was over 100 µM.

**Q.** `O=C(O)c1ccc(Nc2ccnc3cc(Cl)ccc23)cc1O` was tested. Which TGI [1] did it give?
**A.** The TGI was over 100 µM.

**Q.** What about the TGI [56] of the same compound?
**A.** The TGI was over 100 µM.

**Q.** And the TGI [2]?
**A.** Its TGI is over 100 µM.

**Q.** And the TGI [3]?
**A.** Its TGI is over 100 µM.

**Q.** What about the TGI [4] of the same compound?
**A.** Its TGI is over 100 µM.

**Q.** And the TGI [5]?
**A.** The TGI was over 100 µM.

**Q.** And the TGI [6]?
**A.** The TGI was over 100 µM.

**Q.** What about the TGI [7] of the same compound?
**A.** The TGI was over 100 µM.

**Q.** What about the TGI [8] of the same compound?
**A.** The TGI was over 100 µM.

**Q.** And the TGI [57]?
**A.** Its TGI is over 100 µM.

**Q.** And the TGI [9]?
**A.** The TGI was over 100 µM.

**Q.** And the TGI [10]?
**A.** The TGI was over 100 µM.

**Q.** And the TGI [11]?
**A.** The TGI was over 100 µM.

**Q.** And the TGI [12]?
**A.** Its TGI is over 100 µM.

**Q.** What about the TGI [13] of the same compound?
**A.** Its TGI is over 100 µM.

**Q.** And the TGI [14]?
**A.** Its TGI is over 100 µM.

**Q.** What about the TGI [15] of the same compound?
**A.** Its TGI is over 100 µM.

**Q.** What about the TGI [16] of the same compound?
**A.** The TGI was over 100 µM.

**Q.** What about the TGI [17] of the same compound?
**A.** The TGI was over 100 µM.

**Q.** What about the TGI [58] of the same compound?
**A.** Its TGI is over 100 µM.

**Q.** And the TGI [18]?
**A.** The TGI was over 100 µM.

**Q.** And the TGI [19]?
**A.** Its TGI is over 100 µM.

**Q.** And the TGI [20]?
**A.** The TGI was over 100 µM.

**Q.** What about the TGI [21] of the same compound?
**A.** The TGI was over 100 µM.

**Q.** What about the TGI [22] of the same compound?
**A.** The TGI was over 100 µM.

**Q.** And the TGI [23]?
**A.** The TGI was over 100 µM.

**Q.** And the TGI [24]?
**A.** The TGI was over 100 µM.

**Q.** And the TGI [25]?
**A.** The TGI was over 100 µM.

**Q.** What about the TGI [26] of the same compound?
**A.** The TGI was over 100 µM.

**Q.** What about the TGI [27] of the same compound?
**A.** The TGI was over 100 µM.

**Q.** And the TGI [28]?
**A.** Its TGI is over 100 µM.

**Q.** And the TGI [29]?
**A.** Its TGI is over 100 µM.

**Q.** What about the TGI [30] of the same compound?
**A.** The TGI was over 100 µM.

**Q.** And the TGI [31]?
**A.** Its TGI is over 100 µM.

**Q.** What about the TGI [32] of the same compound?
**A.** Its TGI is over 100 µM.

**Q.** What about the TGI [33] of the same compound?
**A.** The TGI was over 100 µM.

**Q.** And the TGI [34]?
**A.** The TGI was over 100 µM.

**Q.** And the TGI [35]?
**A.** The TGI was over 100 µM.

**Q.** What about the TGI [36] of the same compound?
**A.** Its TGI is over 100 µM.

**Q.** What about the TGI [37] of the same compound?
**A.** The TGI was over 100 µM.

**Q.** What about the TGI [59] of the same compound?
**A.** The TGI was over 100 µM.

**Q.** And the TGI [38]?
**A.** The TGI was over 100 µM.

**Q.** And the TGI [39]?
**A.** Its TGI is over 100 µM.

**Q.** And the TGI [40]?
**A.** The TGI was 88.7 µM.

**Q.** What about the TGI [41] of the same compound?
**A.** The TGI was over 100 µM.

**Q.** And the TGI [42]?
**A.** Its TGI is over 100 µM.

**Q.** And the TGI [43]?
**A.** Its TGI is over 100 µM.

**Q.** And the TGI [44]?
**A.** The TGI was over 100 µM.

**Q.** And the TGI [45]?
**A.** Its TGI is over 100 µM.

**Q.** And the TGI [46]?
**A.** Its TGI is over 100 µM.

**Q.** And the TGI [47]?
**A.** Its TGI is over 100 µM.

**Q.** And the TGI [49]?
**A.** The TGI was over 100 µM.

**Q.** And the TGI [50]?
**A.** Its TGI is over 100 µM.

**Q.** And the TGI [51]?
**A.** The TGI was over 100 µM.

**Q.** What about the TGI [52] of the same compound?
**A.** Its TGI is over 100 µM.

**Q.** What about the TGI [53] of the same compound?
**A.** The TGI was over 100 µM.

**Q.** And the TGI [54]?
**A.** The TGI was over 100 µM.

**Q.** And the TGI [55]?
**A.** The TGI was over 100 µM.
